Data on 9 compounds can be found in EP2664619B1, “Purine derivatives as tools for screening anti-Alzheimer compounds” (Manros Therapeutics, priority 2012, dated 2013).

Molecules are shown by their SMILES.

By IC50 is commonly meant the concentration needed to halve the response being measured. A word on the EC50: it is the concentration giving half of the maximal effect.

For data set [1], the system named is Aβ38. Put plainly: Effect of γ-secretase inhibitors/modulator on Aβ38 level in Aftin-treated cells. To be noted: for IC50: γ-secretase inhibitor, Aftin-treated cells. The class given is cell-based. The source says: (§1) To investigate the importance of γ-secretases in the effects of Aftins according to the invention, two potent pharmacological inhibitors of γ-secretases, DAPT (N-[(3,5-Difluorophenyl)acetyl]-L-alanyl-2-phenyl]glycine-1,1-dimethylethyl ester) and BMS 299897 were used.

Data set [2] deals with Aβ40. Put plainly: Effect of γ-secretase inhibitors on Aβ40 level in Aftin-treated cells. The conditions noted are these: γ-secretase inhibitor. The data set is classed as cell-based.
Description: as §1

A further data set relates to Aβ42. Put plainly: Effect of γ-secretase inhibitors/modulator on Aftin-induced production of Aβ42. The class given is cell-based. To be noted: for IC50: γ-secretase inhibitor, Aftin-induced production.
Description: as §1

The subject of the next data set is γ-secretases. The conditions noted are these: read-out: reported IC50 values on γ-secretases; cited from earlier work.
A further data set has as its system Aβ42 production. Put plainly: Sandwich ELISA measurement of Aβ42 levels in supernatant of treated N2a-APP695 cells. The data set is classed as cell-based, Mouse. To be noted: for EC50: Mus musculus, 18h incubation, ELISA assay, read-out: EC50 (µM) at inducing Aβ42 production. As for the experimental part: (§2) Mouse neuroblastoma cells (N2a cells) or N2a-APP695 cells (N2a cell line stably transfected with APP695, an amyloid precursor protein) were cultured in an essential medium composed of Dulbecco's minimal essential medium (DMEM) and of OptiMEM® (1:1, v/v) (Gibco®) containing 0.2 mg/mL Geniticin (Geneticin® Selective Antibiotic, Gibco®) and 5 % fetal bovine serum (FBS, Gibco®, EU approved origin) in a humidified, 5% CO2 incubator at 37°C. Routinely, cells were split without use of Trypsin every 4/5 days. They were first rinsed with PBS (Gibco) and detached from the plate bottom using 4 mL Versene (Gibco) at room temperature for 3-4 min. 8 mL of fresh medium were added to the cell suspension, and the mix was centrifuged for 3 min at 1,000 rpm. The cell pellet was resuspended in fresh medium before seeding (1/10 dilution) in new flasks.
The N2a-APP695 cells were seeded at 10.000 cells/well in a 96 well plate with modified media (0.5% FBS) and incubated overnight. Cells were treated with fresh media comprising different compounds according to the invention (equal quantity of DMSO sold by Sigma®). They were then incubated for 18h in a humidified, 5% CO2 incubator.
Purines according to the invention were added at various concentrations to N2a-APP695.
The plate was finally centrifuged to remove cell fragments before collecting supernatant samples for amyloids levels determination.
Then, Aβ38, Aβ40 and Aβ42 levels were measured in a sandwich ELISA (Enzyme-Linked ImmunoSorbent Assay) using a combination of monoclonal antibody 6E10 (mAb 6E10) (sold by Covance® under the reference SIG-39320) and biotinylated polyclonal Aβ38, Aβ40 or Aβ42 antibodies (provided by Dr. P.D. Mehta, IBR, Staten Island, USA).
A solution of 100 µl mAb 6E10 diluted in carbonate-bicarbonate buffer, pH 9.6, was coated in the wells of microtiter plates (Maxisorp™ sold by Nunc®) and incubated at 4°C overnight. The plates were then washed with PBST (PBS tablets sold by Gibco®) containing 0.05% Tween-20 (Sigma®), and blocked for 1 h with 1% BSA (Sigma®) in PBST (PBS tablets sold by Gibco®) containing 0.05 Tween-20 (Sigma®) to avoid nonspecific binding.
Following a washing step, samples were added and incubated for 2 hours at room temperature (RT) and then at 4°C overnight. Plates were then washed before incubation with biotinylated polyclonal antibody diluted in PBST (PBS tablets sold by Gibco®) containing 0.05 Tween-20 (Sigma®) + 0.5% BSA at room temperature for 75 minutes.
After a washing step, streptavidin-horseradish peroxidase conjugate (Streptavidin poly-HRP, Thermo Scientific Pierce®), diluted in PBS + 1% BSA, was added and incubation was carried out for 45 min at room temperature. After washing, 100 µl of o-phenylenediamine dihydrochloride (OPD tablets, Invitrogen®) diluted in citrate buffer pH 5.0 were added. The reaction was stopped after 15 min with the addition of 100 µl 1 N sulfuric acid.
A range of known concentrations of Aβ38, Aβ40 and Aβ42, ranging from 0.01 to 10 ng/mL for Aβ38 and Aβ42, and ranging from 0.001 to 10 ng/mL for Aβ40, were use as a reference scale to determine the concentrations of Aβ38, Aβ40 and Aβ42 obtained.
(§3) The optical density was finally measured at 490 nm in a microELISA reader (sold by BioTek Instrument, reference E1 800, Gen 5 software).
The EC50 of the molecules tested were thus calculated.

Data set [3] concerns Aβ40. Put plainly: Sandwich ELISA measurement of Aβ40 levels in supernatant of treated N2a-APP695 cells. The class given is cell-based, Mouse. As for the experimental part:
as §2, with “8 mL of fresh medium were added to the cell suspension, and the mix was centrifuged for 3 min at 1,000 rpm. The cell pellet was resuspended in fresh medium before seeding (1/10 dilution) in new flasks.” left out
(§4) The N2a-APP695 cells were seeded at 10.000 cells/well in a 96 well plate with modified media (0.5% FBS) and incubated overnight. Cells were treated with fresh media comprising different compounds according to the invention (equal quantity of DMSO sold by Sigma®). […]
(§5) Then, Aβ38, Aβ40 and Aβ42 levels were measured in a sandwich ELISA (Enzyme-Linked ImmunoSorbent Assay) using a combination of monoclonal antibody 6E10 (mAb 6E10) (sold by Covance® under the reference SIG-39320) and biotinylated polyclonal Aβ38, Aβ40 or Aβ42 antibodies (provided by Dr. P.D. Mehta, IBR, Staten Island, USA). […]
as §3

The subject of data set [4] is Aβ38. Put plainly: Sandwich ELISA measurement of Aβ38 levels in supernatant of treated N2a-APP695 cells. The data set is classed as cell-based, Mouse. As for the experimental part:
as §2, with “8 mL of fresh medium were added to the cell suspension, and the mix was centrifuged for 3 min at 1,000 rpm. The cell pellet was resuspended in fresh medium before seeding (1/10 dilution) in new flasks.” left out
as §4, §5, §3
In general terms: ELISA stands for enzyme-linked immunosorbent assay.

The subject of another data set is N2a-APP695 cells. Put plainly: MTS cell viability assay in the same wells as the ELISA. To be noted: for Toxicity: class symbol. In general terms: Tetrazolium assays rely on reduction of a dye to a coloured formazan, in cell work by metabolically active cells.
[5] abbreviates: N2a-APP695 cells, 18 hours, dose-dependent, Figure 3.
Setting [6] is: N2a-APP695 cells, 1 µM added simultaneously with increasing concentrations of Aftin-5.

On to `C[C@H](NC(=O)Cc1cc(F)cc(F)c1)C(=O)N[C@H](C(=O)OC(C)(C)C)c1ccccc1` [DAPT], for which the IC50 is 112 nM in the data set with Aβ38 [1], 61.8 nM in the data set with Aβ40 [2], 42.5 nM in the data set on Aβ42 and 25 to 56 nM with γ-secretases.
Turning to `CC[C@H](CO)Nc1nc(N(C)c2ccccc2)c2ncn(C(C)C)c2n1` [Aftin-5, (2R)-2-[[9-isopropyl-6-(N-methylanilino)purin-2-yl]amino]butan-1-ol], the EC50 in the data set on Aβ42 production (N2a-APP695 cells) is 10.6 µM. Besides, the “increase of the levels of Aβ42 production” value in the data set on Aβ42 production (dose-response curves, Figure 1, 18 hours, up to) is > 900%. Moreover, in the data set with Aβ40 [3] (dose-response curves, Figure 1, 18 hours), the “levels of Aβ40, maximum increase” value was ≤ 40%. Besides, the “levels of Aβ38, decrease” value in the data set on Aβ38 [4] (dose-response, in parallel to the increase of Aβ42) is reported as > 70%. Further, the Toxicity entry with N2a-APP695 cells (MTS assay, N2a-APP695 cells) is “- ("-" means that the tested compound is non toxic with a concentration higher than 100 µM)”. In addition, in the data set with N2a-APP695 cells (highest concentration tested (150 µM) or longest exposure (5 days)), the “cytotoxic effects on cells” value was “did not show any cytotoxic effects”.
With `C[C@H](c1ccc(F)cc1CCCC(=O)O)N(c1cc(F)ccc1F)S(=O)(=O)c1ccc(Cl)cc1` [BMS 299897], the IC50 was 88 nM in the data set on Aβ38 [1], 55.9 nM in the data set with Aβ40 [2], 28.8 nM in the data set with Aβ42 and 8 to 300 nM with γ-secretases.
As for `CC[C@H](CO)Nc1nc(N(C)c2ccc(OC)cc2)c2ncn(C(C)C)c2n1` [Compound 44, (2R)-2-[[9-isopropyl-6-[(4-methoxyphenyl)-methyl-amino]purin-2-yl]amino]butan-1-ol], the EC50 in the data set with Aβ42 production (N2a-APP695 cells) turned out to be 4.5 µM. The Toxicity entry in the data set on N2a-APP695 cells (MTS assay, N2a-APP695 cells) is recorded as “+”. Further, in the data set on N2a-APP695 cells (MTS assay, N2a-APP695 cells, concentration above which toxic), the “Toxicity (concentration in brackets)” value is on record as > 21 µM.
Regarding `CC[C@H](CO)Nc1nc(SCc2ccccc2)c2ncn(C(C)C)c2n1` [Compound 47, (2R)-2-[(6-benzylsulfanyl-9-isopropyl-purin-2-yl)amino]butan-1-ol], in the data set on Aβ42 production (N2a-APP695 cells), the EC50 is > 10 µM. For the same compound, in the data set with N2a-APP695 cells (MTS assay, N2a-APP695 cells), the Toxicity result was “+”.
Regarding `CC[C@@H](CO)Nc1nc(N(C)c2ccccc2)c2ncn(C(C)C)c2n1` [Compound 26], in the data set with Aβ42 production (N2a-APP695 cells), the EC50 came out at 17 µM. For the same compound, in the data set on N2a-APP695 cells (MTS assay, N2a-APP695 cells), the Toxicity result is “- ("-" means that the tested compound is non toxic with a concentration higher than 100 µM)”.
As to `CCN(Cc1ccccc1)c1nc(N[C@@H](CO)C(C)C)nc2c1ncn2C1CCCC1` [Compound 15], in the data set on Aβ42 production (N2a-APP695 cells), the EC50 turned out to be 0.5 µM. Also, in the data set on N2a-APP695 cells (MTS assay, N2a-APP695 cells), the Toxicity result was “+”.
Regarding `CCN(CC)c1ccc(C)c(Nc2nc(-c3ccc(-n4cnc(C)c4)cc3)cs2)c1` ['Torrey Pines' compound, reference compound], the Aβ42 production result in the data set on Aβ42 production (setting [5]) is reported as “down-regulates”. Also, in the data set on Aβ40 [3] (setting [5]), the Aβ40 production result is “down-regulates”. For the same compound, in the data set on Aβ38 [4] (setting [5]), the Aβ38 level entry is listed as “up-regulation”. Besides, in the data set with Aβ38 [1] (setting [6]), the Aβ38 regulation entry is on record as “up-regulation”. Also, the Aβ42 regulation entry in the data set on Aβ42 (setting [6]) was “down-regulation”. In the data set on Aβ42 (N2a-APP695 cells, added 1 h prior to 100 µM Aftin-5, dose dependent, Figure 4), the “effect on Aftin-5 induced Aβ42 up-regulation and Aβ38 down-regulation” value is on record as “inhibition of Aftin-5 effect”.
For the compound `CC[C@H](CO)Nc1nc(N(C)Cc2ccc(C(=O)NCCOCCOCCOCCOCCOCCN)cc2)c2ncn(C(C)C)c2n1` [Compound 30], in the data set on Aβ42 production (N2a-APP695 cells), the concentration giving a half-maximal response (EC50) is > 100 µM. Besides, the Toxicity entry in the data set on N2a-APP695 cells (MTS assay, N2a-APP695 cells) was “- ("-" means that the tested compound is non toxic with a concentration higher than 100 µM)”.
